Here are results for five compounds from patent publication US20100273868A1, “R-Zileuton for Use in Conditions Associated with Increased 5-Lipoxygenase and/or Leukotriene Activity (EG Asthma)” (Cornerstone Therapeutics Inc., priority 2007, published 2010).

Data set [1] has as its system infiltration of inflammatory cells to the airways. Kind of data set: Mouse model of asthma, ovalbumin challenge, BAL 8 h after final challenge (Example 5). The class given is in vivo, BALB/c mice. The note with it: for inhibition of eosinophils in BAL fluid / inhibition of neutrophil infiltration in BAL fluid / inhibition of the increase in total cellularity of BAL fluid: 4 mg/kg; for efficacy compared with racemic zileuton or S(−) zileuton: 2 or 4 mg/kg oral once a day. On the procedure: Male BALB/c mice were obtained from Taconic Labs (Taconic, N.Y.) and maintained on an OVA-free (ovalbumin-free) diet. After equilibration of at least 5 days, animals were sensitized to OVA and then challenged by the following procedure. On days 1 and 14, sensitization was performed by intraperitoneal (ip) injections of 10 μg OVA emulsified in 2 mg Al(OH)3 (aluminum hydroxide (Aldrox)) in a volume of […]. On days 29, 30 and 31, allergen challenge was performed via intranasal instillation of 20 μL (10 μL/nare) of OVA (1 mg/mL) under light isoflurane anesthesia.
The background control group received no sensitization and no challenge. The sham control group underwent the OVA sensitization procedure, but was challenged with PBS. The vehicle control group was used to determine the maximal response level achievable.
Animals were given Zileuton (at 2 or 4 mg/kg, by mouth (po), once daily (qd)) or (orally) 30 minutes prior to each ovalbumin challenge. Eight hours after the final ovalbumin challenge, animals were sacrificed and bronchoalveolar lavage (BAL) was performed. A tracheal tube was inserted into the trachea and the lungs were lavaged 2 times with pyrogen-free, sterile, PBS containing 0.01% EDTA and 0.05% BSA (Bovine serum albumin). Lavage fluid, maintained at room temperature, was slowly injected into the lungs; lungs were manually massaged to distribute fluid for 30 seconds, bronchoalveolar lavage fluid (BALF) was slowly withdrawn and salvaged to individually-labeled, sterile, polypropylene tubes. The procedure was repeated 2 times/animal and the lavage fluids were pooled. The magnitude of the infiltration of inflammatory cells to the airways was determined by flow cytometry.

Data set [2] deals with LTB4 production in human whole blood. Kind of data set: Human whole blood assay of LTB4 inhibition. It is filed as cell-based. The note with it: for IC50: A23187 50 μM. On the procedure: The potency of racemic and (R)-zileuton was assessed in fresh human whole blood essentially by the methods of Carter et al., J. Pharm. Exp. Ther. 1991: 256:929. Briefly, 0.5.ml of heparinized (20 USP U/ml) human blood from each donor was incubated with vehicle (DMSO), or various concentrations of racemic zileuton, (R)-zileuton or (S)-zileuton (prepared in DMSO) for fifteen minutes at 37° C. Eicosanoid biosynthesis was initiated by the addition of calcium ionophore A23187 in DMSO to a final concentration of 50 μM (final DMSO concentration of 1%). Samples were incubated for an additional 30 minutes at 37° C. in the presence of A23187. The reaction was terminated by cooling in an ice bath for 2 minutes followed by centrifugation. The plasma was then salvaged to an EIA buffer (1M phosphate buffer, pH 7.4) then stored at −80° C. until assay. The level of LTB4 was analyzed by enzyme immunoassay.

The test system of data set [3] is cellular infiltration of airways. Nature of the data set: Murine model of allergic lung inflammation, ovalbumin challenge, BAL 24 h after final challenge (Example 4). It is filed as in vivo, BALB/c mice. The note with it: oral. On the procedure: Male, BALB/c mice were sensitized intraperitoneally (i.p.) with ovalbumin (10 μg) on days 1 and 14. To provoke an allergic lung inflammatory response, the mice received three intransal (i.n.) challenges with ovalbumin (100 μg) (or saline for sham) on days 29, 30 and 31. After sensitization period, animals were treated orally 30 minutes prior to ovalbumin challenge on days 29, 30 and 31 according to the following regimes: racemic Zileuton (10 mg/kg, four times daily (qid)), Montelukast (0.17 mg/kg, once daily (qd)), Dexamethasone (4 mg/kg, once daily (qd)). Twenty-four hours following the final challenge (n=16 per group, pool of two separate studies), animals were sacrificed and bronchoalveolar lavage (BAL) was performed. Infiltration of airways by inflammatory cells was quantified by cytospin, microscopy and/or flow cytometry. The dose levels and frequencies of zileuton and montelukast were chosen to approximate the human clinical use. Zileuton, Montelukast and Dexamethasone were compared to their respective “qid” and “qd” controls.

The nature of data set [4]: Plasma concentration-time profile (AUC) after oral dosing to dogs. The class given is in vivo, beagle dogs. The note with it: for AUC: beagle, dog, plasma, gelcaps. On the procedure: The plasma concentration-time profiles for racemic zileuton and (R)-zileuton were evaluated in beagle dogs dosed orally with either 10 mg/kg racemic zileuton or 5 mg/kg (R)-zileuton in gelcaps. Following oral dosing blood samples were collected from the test animals into sodium-EDTA anticoagulant tubes at selected time points up to 48 hours post-dose, processed into plasma and analysed by an LC-MS/MS method for zileuton concentration. The LC-MS/MS method utilized a 0.1% trifluoroacetic in water and methanol gradient HPLC system (initial 45:55 to 10:90% over 4 minutes with a Zorbax SB-C18 4.6×30 mm column at a flow rate of 1.5 mL/min). The retention time of zileuton was 2.0 minutes. A stable labeled version of zileuton was used to internally standardize the analysis. Mass spectrometer analysis by electrospray ionization of the HPLC eluent was performed in SRM mode (ESI 3.5 kV; tube lens voltage 71.0; capillary offset 40.3; L11-24.3; capillary temperature 350° C.; dwell 100 msec; collision energy 15 eV). Plasma concentrations of zileuton in the test samples were estimated by interpolation of sample peak area/height data from a standard concentration-peak area/height plot. The area under the plasma concentration-time (AUC) was calculated by non-compartmental pharmacokinetic analysis (WinNonlin, Pharsight, Mountain View, Calif.) using the trapezoidal rule.

Data set [5] has as its system LTB4 production in canine whole blood. Kind of data set: Ex vivo inhibition of A23187-stimulated LTB4 production in canine whole blood after oral dosing. The note with it: Canis lupus familiaris, dogs; for inhibition at 10 mg/kg: 10 mg/kg oral; for inhibition at 5 mg/kg: 5 mg/kg oral. On the procedure:
To determine the pharmacodynamics of racemic and (R)-zileuton, ex vivo, in fresh canine whole blood, a 0.5 ml aliquot was removed from each pharmacokinetic sample of the study. Each 0.5 ml aliquot of blood was placed into an individually-labeled, 1.5 ml polypropylene tube. Five (5) μl of a 5 mM calcium ionophore A23187 solution (in DMSO) was added to each sample and mixed for 10 seconds on a vortex. Final concentration of A23187 in whole blood was 50 μM (final DMSO concentration was 1%). After mixing, each sample was placed into a 37° C. circulating water bath and allowed to incubate for 30 minutes. […] After incubation, each sample was removed from the water bath and immediately placed onto wet ice for 2 minutes. The samples were removed from the ice after 2 minutes and immediately centrifuged in an Eppendorf Microfuge (VWR Scientific, USA) at 14,000 rpm for 2 minutes at ambient room temperature. After centrifugation, the supernatant (plasma) was collected, diluted into EIA buffer (1M phosphate buffer, pH 7.4) then stored at −80° C. until assay. The level of LTB4 was analyzed by enzyme immunoassay (Cayman Chemical Co., Ann Arbor, Mich.).

By IC50 is commonly meant the concentration at which inhibition is half-maximal. Higher therefore signals a need for much substance. For `C[C@@H](c1cc2ccccc2s1)N(O)C(N)=O` [(S)-zileuton], in data set [1] (po, qd, versus vehicle control), the “inhibition of eosinophils in BAL fluid” value is 51%, the “inhibition of neutrophil infiltration in BAL fluid” value is on record as 35% and the “inhibition of the increase in total cellularity of BAL fluid” value (from here on “inhibition of the increase”) is listed as “not significantly effective”. The compound further came in with a 50% inhibitory concentration (IC50) in data set [2] of 4770 nM.

With `CC(C)(O)c1ccccc1CC[C@@H](SCC1(CC(=O)O)CC1)c1cccc(/C=C/c2ccc3ccc(Cl)cc3n2)c1` [Montelukast], in data set [3] (0.17 mg/kg, qd), the “% Inhibition Eosinophils” value turned out to be 99.2 ± 0.02%, the “% Inhibition Neutrophils” value came out at 23.3 ± 6.6% and the “% Inhibition Total cells” value is on record as 53.3 ± 6.5%.

On to `C[C@@H]1C[C@H]2[C@@H]3CCC4=CC(=O)C=C[C@]4(C)[C@@]3(F)[C@@H](O)C[C@]2(C)[C@@]1(O)C(=O)CO` [Dexamethasone], for which, in data set [3] (4 mg/kg, qd), the “% Inhibition Eosinophils” value stood at 99.2 ± 0.02%, the “% Inhibition Neutrophils” value is on record as 90.5 ± 1.1% and the “% Inhibition Total cells” value worked out at 62.5 ± 1.5%.

What is called AUC is concentration integrated over time. A higher AUC goes with high exposure. Broadly, the inhibition is the relative decrease from the control value, in per cent. As for `CC(c1cc2ccccc2s1)N(O)C(N)=O` (racemic) [racemic zileuton, (±)-1-(1-Benzo[b]thien-2-ylethyl)-1-hydroxyurea], in data set [3] (10 mg/kg, qid), the “% Inhibition Eosinophils” value stood at 99.2 ± 0.02%, the “% Inhibition Neutrophils” value is listed as 87.9 ± 2.3% and the “% Inhibition Total cells” value was determined as 62.2 ± 1.7%. Besides, in data set [4] (10 mg/kg po), the AUC worked out at 87000 ng·h/mL. Also, in data set [1] (po, qd, versus vehicle control), the “inhibition of eosinophils in BAL fluid” value came to 67%, the “inhibition of neutrophil infiltration in BAL fluid” value came to 54% and the “inhibition of the increase” value is reported as 66%. This compound yielded an IC50 in data set [2] of 745 nM. In addition, in data set [5] (36 hours after administration), the inhibition at 10 mg/kg is around 84%. In data set [5] (time points between 30 minutes and 24 hours after administration), the inhibition at 10 mg/kg is 100%.

Regarding `C[C@H](c1cc2ccccc2s1)N(O)C(N)=O` [(R)-zileuton], in data set [4] (FIG. 1), the “share of the racemic zileuton AUC” value stood at 58%. This compound registered an area under the curve (AUC) in data set [4] (5 mg/kg po) of 52000 ng·h/mL. For the same compound, the “inhibition of the total cell infiltration” value in data set [1] (2 mg/kg, po, qd, versus vehicle control) turned out to be 66%. In data set [1] (po, qd, versus vehicle control), the “inhibition of eosinophils in BAL fluid” value was 75%, the “inhibition of neutrophil infiltration in BAL fluid” value was determined as 65% and the “inhibition of the increase” value is recorded as 85%. Also, the “efficacy compared with racemic zileuton or S(−) zileuton” value in data set [1] is listed as “significantly greater efficacy than racemic zileuton”. In addition, the “efficacy compared with racemic zileuton or S(−) zileuton” value in data set [1] (listed as R(+) zileuton) is recorded as “greater efficacy”. In data set [2], the “S(−) zileuton IC50/R(+) zileuton IC50 ratio” value stood at 11.9 and 399 nM corresponded to half-maximal inhibition (IC50). Besides, in data set [5] (36 hours after administration), the inhibition at 5 mg/kg was around 74%. Also, the inhibition at 5 mg/kg in data set [5] (time points between 60 minutes and 24 hours after administration) is above 91%.
